Data reported in patent US7148380B2, “Bio-energy muscle relaxants” (priority 2000, dated 2006).

Legend:
[1] = system: drug-induced asthma in guinea pig; test: Asthmatic latent period / drug-induced asthma in guinea pig (acetylcholine + histamine inhalation); type: in vivo
Description: Sensitive animals were chosen by aerosolized inhalation of asthma-inducing agents—a mixed solution of 2% acetylcholine with 0.1% histamine for 15 sec., inducing an asthmatic attack with severe difficulty in respiration and finally resulting in the animal body turned down. The time from beginning of the inhalation to animal turned down was recorded as an index named “turned down time” or asthmatic latent period. Those animals with turned down time less than 120 s. were selected for the study next day. […] Then the latent period was recorded for each of the animals.
(1) Screening animals: animal was put in a glass container, a mixed solution of 2% acetylcholine and 0.1% histamine was nebulized with a pressure of 400 mmHg and inhaled by the animals for 15 sec. Following the end of the inhalation, the time between beginning of the inhalation and the animal turned down due to bronchial spasm and dyspnea was recorded as asthmatic latent period. Those animals with a latent period beyond 120 s. were excluded, and those with a latent period less than 120 s were selected for study the next day.
(4) Measuring: Repeat the inhalation at 30 min, 4 h, and 24 h after administration of the drugs respectively. Asthmatic latent period was recorded, 6 minutes were taken as the maximum, and values beyond 6 min were counted as 6 min.
(5) Data analysis: Values were expressed as mean±sd, and paired for “t” and chi-square tests. Significance was considered to be established when p<0.05.

[2] = system: contraction of bronchial smooth muscle induced by histamine; test: By-pass-airflow pressure, bronchial smooth muscle contraction induced by histamine; type: in vivo, guinea pig
Description: The animals were divided as saline, BDM, and aminophylline groups. Each animal was anesthetized with pentobarbital (30 mg/kg, I.P.), the trachea was intubated and connected to respirator. Tidal volume and frequency of the respirator were adjusted to 6˜10 ml and 60˜70 breath/min. respectively.
A small hole on chest wall of the animal was made, resulting in pneumothorax to inhibit spontaneous respiration of the animal. A modified device was used for measuring by-pass-airflow pressure of the airway, reflecting alteration in airway resistance, therefore evaluating status of bronchial smooth muscle contraction induced by histamine. The by-pass-airflow pressures were measured before and at 10, 20, 30, 40, 50, and 60 min after administration of histamine (5˜10 μg, I.P.) as control values. […] Changes in by-pass-airflow pressure caused by histamine before and after saline, BDM, or aminophylline were compared.
A percentage of changes in the airflow pressures before and after administration of the histamine at different time points, defined as the change rate, was calculated according to formula 1 below: Change rate (%)=(PA−PB)/PB×100% (1)
where PA is the airflow pressure after histamine, PB is the pressure before histamine. Values were expressed as mean±SD, paired or group “t” test was used upon the requirement for the statistical analysis. The results were considered significant when p<0.05.

[3] = 10 ml/kg I.P. (BDM 0.2M, aminophylline 1.25%), mean±sd
[4] = after drug 10 ml/kg I.P., 10 min after histamine
[5] = after drug 10 ml/kg I.P., 20 min after histamine
[6] = after drug 10 ml/kg I.P., 30 min after histamine
[7] = after drug 10 ml/kg I.P., 40 min after histamine
[8] = after drug 10 ml/kg I.P., 50 min after histamine
[9] = after drug 10 ml/kg I.P., 60 min after histamine
[10] = before drug administration, 10 min after histamine
[11] = before drug administration, 20 min after histamine
[12] = before drug administration, 30 min after histamine
[13] = before drug administration, 40 min after histamine
[14] = before drug administration, 50 min after histamine
[15] = before drug administration, 60 min after histamine

Compound: Cn1c(=O)c2[nH]cnc2n(C)c1=O [Aminophylline, aminophylline, reference compound]
- Asthamatic Latent Period, 30 minutes after administration ([1]; 10 ml/kg I.P. (BDM 0.2M, aminophylline 1.25%), maximum 6 min, mean±sd): 298.2 ± 138.2 s
- Asthamatic Latent Period, 4 hours after administration [1, 3]: 216.6 ± 112.5 s
- Asthamatic Latent Period, 24 hours after administration [1, 3]: 96 ± 26.9 s
- Incidence of asthmatic spasm ([1]; 30 min after administration, down from 100%, not significant): 40%
- Asthamatic Latent Period, before administration ([1]; baseline before drug, 10 ml/kg I.P. (BDM 0.2M, aminophylline 1.25%), mean±sd): 70.6 ± 27.7 s
- Effect on the latent period ([1]; thirty minutes and 4 h after administration, p<0.05): significantly extended
- by-pass-airflow pressure, A, B. Hist ([2]; after drug 10 ml/kg I.P. (BDM 0.2M, aminophylline 1.25%), before histamine): 4.24 ± 1.18 Kpa
- by-pass-airflow pressure, A, Hist 10 min. [2, 4]: 4.36 ± 1.10 Kpa
- changing rate of by-pass-airflow pressure, A, Hist 10 min. [2, 4]: −7.68%
- by-pass-airflow pressure, A, Hist 20 min. [2, 5]: 4.18 ± 0.86 Kpa
- changing rate of by-pass-airflow pressure, A, Hist 20 min. [2, 5]: −10.62%
- by-pass-airflow pressure, A, Hist 30 min. [2, 6]: 4.20 ± 0.92 Kpa
- changing rate of by-pass-airflow pressure, A, Hist 30 min. [2, 6]: −10.40%
- by-pass-airflow pressure, A, Hist 40 min. [2, 7]: 4.15 ± 0.88 Kpa
- changing rate of by-pass-airflow pressure, A, Hist 40 min. [2, 7]: −11.38%
- by-pass-airflow pressure, A, Hist 50 min. [2, 8]: 4.10 ± 0.92 Kpa
- changing rate of by-pass-airflow pressure, A, Hist 50 min. [2, 8]: −12.73%
- by-pass-airflow pressure, A, Hist 60 min. [2, 9]: 4.02 ± 0.92 Kpa
- changing rate of by-pass-airflow pressure, A, Hist 60 min. [2, 9]: −14.25%
- histamine-induced increase in the airflow pressure ([2]; at 10, 20, 30, 40, 50, and 60 min after administration, p<0.01 or p<0.05): significantly reduce
- by-pass-airflow pressure, B, Hist 10 min. [2, 10]: 4.51 ± 0.65 Kpa
- changing rate of by-pass-airflow pressure, B, Hist 10 min. [2, 10]: 8.37%
- by-pass-airflow pressure, B, Hist 20 min. [2, 11]: 4.34 ± 0.73 Kpa
- changing rate of by-pass-airflow pressure, B, Hist 20 min. [2, 11]: 3.93%
- by-pass-airflow pressure, B, Hist 30 min. [2, 12]: 4.40 ± 0.79 Kpa
- changing rate of by-pass-airflow pressure, B, Hist 30 min. [2, 12]: 5.31%
- by-pass-airflow pressure, B, Hist 40 min. [2, 13]: 4.42 ± 0.80 Kpa
- changing rate of by-pass-airflow pressure, B, Hist 40 min. [2, 13]: 5.80%
- by-pass-airflow pressure, B, Hist 50 min. [2, 14]: 4.42 ± 0.86 Kpa
- changing rate of by-pass-airflow pressure, B, Hist 50 min. [2, 14]: 5.63%
- by-pass-airflow pressure, B, Hist 60 min. [2, 15]: 4.46 ± 0.87 Kpa
- changing rate of by-pass-airflow pressure, B, Hist 60 min. [2, 15]: 6.54%
- by-pass-airflow pressure, B, B. Hist ([2]; before drug administration, before histamine): 4.18 ± 0.72 Kpa
- changing rate of by-pass-airflow pressure, D, Hist 10 min. ([2]; difference A minus B, 10 min after histamine): −16.05%
- changing rate of by-pass-airflow pressure, D, Hist 20 min. ([2]; difference A minus B, 20 min after histamine): −14.55%
- changing rate of by-pass-airflow pressure, D, Hist 30 min. ([2]; difference A minus B, 30 min after histamine): −15.71%
- changing rate of by-pass-airflow pressure, D, Hist 40 min. ([2]; difference A minus B, 40 min after histamine): −17.19%
- changing rate of by-pass-airflow pressure, D, Hist 50 min. ([2]; difference A minus B, 50 min after histamine): −18.36%
- changing rate of by-pass-airflow pressure, D, Hist 60 min. ([2]; difference A minus B, 60 min after histamine): −20.79%
